Patent publication US20040151785A1, “Method for treating insulin resistance through hepatic nitric oxide” (DiaMedica Inc., priority 1998, published 2004)
Like-named read-outs stand apart in the source and are kept apart here.

Tests used:
rats [1] = experiment: Rapid insulin sensitivity test (RIST), modified euglycemic clamp, in anesthetized rats; type: in vivo, rat; settings: for inhibition at 50 mg/kg: Rattus norvegicus, iv
Procedure: Surgical preparation. The left jugular vein was cannulated for glucose infusion. Spontaneous respiration was allowed through a tracheal tube. The blood samples (25 μl) were obtained through a right femoral arterial-venous loop (30). The right femoral artery was cannulated with the arterial side of the loop. The right femoral vein was cannulated with the venous side of the arterial-venous loop. Arterial blood pressure was monitored via the arterial-venous loop by clamping the silicon sleeve on the venous side of the loop. One of the advantages of using this loop is that blood samples can be taken directly from a moving stream of blood with no need to wash or flush sampling catheters. The arterial blood continuously flows through the loop into the venous side. Intravenous infusions, except glucose, were given through the venous side of the loop.

rats [2] = experiment: Arterial blood pressure monitored via arterial-venous loop during RIST experiments; type: in vivo, rat; settings: after atropine, group given intravenous L-NAME 1.0 mg/kg
Procedure: Surgical preparation. The left jugular vein was cannulated for glucose infusion. Spontaneous respiration was allowed through a tracheal tube. The blood samples (25 μl) were obtained through a right femoral arterial-venous loop (30). The right femoral artery was cannulated with the arterial side of the loop. The right femoral vein was cannulated with the venous side of the arterial-venous loop. Arterial blood pressure was monitored via the arterial-venous loop by clamping the silicon sleeve on the venous side of the loop. One of the advantages of using this loop is that blood samples can be taken directly from a moving stream of blood with no need to wash or flush sampling catheters. The arterial blood continuously flows through the loop into the venous side. Intravenous infusions, except glucose, were given through the venous side of the loop. After laparotomy, the portal vein was cannulated with a 24G (OPTIVA™, Johnson & Johnson Medical Inc.) intravenous catheter for intraportal drug administration.

cats = settings: cited from earlier work

N=C(N)NCCC[C@H](N)C(=O)O [L-arginine]
inhibition at 50 mg/kg (rats [1]; read-out: inhibition of control RIST): 53.8 ± 7.1% | inhibition at 50 mg/kg (rats [1]; read-out: inhibition of the control response): 48.8 ± 8.2%

[NH-]c1c[n+](N2CCOCC2)no1 [SIN-1, 3-morpholinosyndnonimine]
inhibition of the control RIST remaining (rats [1]; SIN-1 5.0 mg/kg intraportal after intraportal L-NMMA 0.73 mg/kg, n=5): 24.0±11.6% | inhibition of the control RIST remaining (rats [1]; SIN-1 5.0 mg/kg intravenous after intraportal L-NMMA 0.73 mg/kg, n=4): 59.0±7.2% | inhibition of the control RIST remaining (rats [1]; SIN-1 10.0 mg/kg intraportal after intraportal L-NMMA 0.73 mg/kg, n=5): 0.6±5.8% | inhibition of the control RIST remaining (rats [1]; SIN-1 10.0 mg/kg intraportal after surgical denervation of the hepatic anterior plexus, n=6): 3.8±10.4%

CN1[C@@H]2CC[C@H]1C[C@@H](OC(=O)C(CO)c1ccccc1)C2 (stereo partly drawn) [atropine]
blood pressure (rats [2]): 93.0±8.6 mmHg

COc1ccccc1CNCCCCCCNCCCCCCCCNCCCCCCNCc1ccccc1OC [methoctramine]
dose required to produce a full / similar degree of insulin resistance (cats): 10^−8 μmol/kg

CN1CCN(CC(=O)N2c3ccccc3C(=O)Nc3cccnc32)CC1 [parenzepine]
dose achieving a similar degree of insulin resistance (cats): 10^−7 mmol/kg
